Measured values from patent US12728139B2, “Methods of preparing purified atomic quantum clusters” (NANOGAP SUB-NM-POWDER, S.A., priority 2018, dated 2026).

Experiments:
single nucleosomes = molecular target: T1, single nucleosomes (Homo sapiens, UniProt P62805+P68431+Q16778+Q7L7L0); test: Single-nucleosome destabilization, gel shift assay; format: biochemical; settings: etoposide 60 μM or doxorubicin 20 μM 4 hours; Ag3-AQCs 83 ng/mL 30 minutes
T1 construct: purchased New England Biolabs, Ipswich, USA
Protocol: From each reaction, half of the sample was electrophoresed under non-denaturing conditions, and the gel was stained with ethidium bromide (left, upper panel) and silver (left, lower panel). The remaining portion of the sample was analysed to check that equal amounts of histones were loaded in all cases (right panel). The position of unbound DNA, assembled nucleosomes and histones are indicated. (b) Nucleosomes were incubated with etoposide or doxorubicin as in (a) or the indicated Ag3-AQC dilutions (initial concentration, AQCs 1:10=83 ng/mL). Samples were analysed by native polyacrylamide electrophoresis, and the gel was stained first with ethidium bromide (top) and subsequently with silver (bottom) to visualize histones. This image is representative of two independent experiments.
Single nucleosome preparations were obtained using the Epimark Nucleosome Assembly Kit (New England Biolabs, Ipswich, USA) following the dilution assembly protocol from the manufacturer.
For the gel shift assay, 5% non-denaturing polyacrylamide gels were prepared using TBE buffer. After a 1 hour preliminary run at 100 V, the reactions containing nucleosomes were mixed with DNA loading buffer, and the electrophoresis was performed at 100 V for 2 h. Gels were stained with ethidium bromide to visualize DNA, and the signal was captured using the Gel Doc XR system (Bio-Rad). […]

A549 proliferating cells = test: STORM super-resolution imaging of chromatin organization; format: cell-based, human; settings: Ag3-AQCs 55.61 ng/mL or AgNO3 5 μM, 30 min
Protocol: 1.5×10^4 A549 cells were plated on 8-well Lab-tek cover glass chamber (Nunc) and 24 hours later cells were synchronized in S phase by adding 0.8 mM hydroxyurea (H-8627, Sigma) to the culture medium. […] The medium was removed and replaced with complete medium containing EdU (20 μM) for 2 hours. Cells were then fixed and permeabilized with Methanol-Acetone (1:1) solution at 20° C. for 10 minutes and blocked (3% BSA+0.01% Triton X-100) for 1 hour at RT. Finally, cells were washed three times with PBS and stained with Alexa Fluor 647 following the instructions provided by the manufacturer (Click-iT® EdU Alexa Fluor®488 Imaging Kit, Thermo Fisher Scientific).
The chromatin was imaged using a commercial microscope system from Nikon Instruments (NSTORM). […]
STORM images were analysed and rendered as previously described in Bates et al. 2007. […]
Since the labelling density of the EdU was very high, all of the images were roughly normalized to the same number of localizations per μm^2 of the nucleus, by varying the number of frames used in the final reconstructed image. The percentage of non-zero pixels of the reconstructed images was then calculated in ImageJ, and the percentage of nuclear area covered by EdU also calculated. The density of chromatin per μm^2 was extracted by dividing the number of localizations (same for each recorded nucleus) over the chromatin-covered area.

A549 cells = test: Quantification of platinum bound to DNA (ICP-MS) in A549 cells; format: cell-based, human; settings: proliferating A549 cells, CDDP 50 μM
Protocol: DNA-bound platinum was assessed as previously described in Comenge et al. PLoS One 2012, 7: e47562. Briefly, 5×10^5 A549, MCF7 or U87-luc cells were seeded in 60 mm diameter plates. […] After the treatment, the cells were washed twice with PBS, trypsinised and centrifuged. The supernatants were removed, and the cell pellets were stored at −20° C. overnight. […] After 24 hours, the animals were sacrificed, and the organs were removed. Small pieces (1-2 mm^3) of tumour (lung) and other organs (heart, liver, kidney, spleen, brain and bone marrow) were separated using a scalpel. From this point, the steps for DNA extraction are common to cells and tissue samples. After freezing overnight, cell or tissue pellets were suspended in 300 μL of lysis buffer (150 mM Tris pH 8; 100 mM EDTA pH 8; 100 mM NaCl; 0.5% SDS) and 10 μL of Proteinase K (20 μg/μL). […] The DNA concentration was determined using a NanoDrop 2000 spectrophotometer (Thermofisher, Spain). […] Finally, the amount of platinum was determined by mass spectrometry using an ICP-MS BRUCKER 820-MS with a low-flow glass Micromist nebulizer and a double-pass spray chamber with a Peltier cooling (3° C.) and quartz torch (Bruker Corp., Billerica, MA, USA).

A549 Luc-C8 cells = test: Luminescent cell viability assay; format: cell-based, human; settings: 24 hours
Protocol: Data represent mean±SD of 2 independent experiments with 3 replicas per experiment. Mann Whitney test ((*) p<0.01).
After that, treatments were removed and 20 μL of lysis buffer (Promega) added to wells and incubated for 30 minutes, shacking. Lysates were then transferred to 1.5 mL tubes and centrifuged for 15 minutes at high speed.

[1] = test system: A549 orthotopic lung cancer; test: Orthotopic lung cancer model; settings: CDDP 4 mg/kg intravenously, up to 37 days
Protocol: (a) Tumour growth measured in vivo by luminescence (IVIS® Spectrum).
A suspension of 1×10^6 non-small cell lung carcinoma luciferase expressing cells (A549 Luc-C8 Bioware® cell line) in PBS (50 μL) was injected through the intercostal space into the left lung of athymic nude mice. During this procedure, mice were anaesthetized using 4% isoflurane inhalation. To follow tumour growth, luciferin was injected into the intraperitoneal cavity at a dose of 150 mg/kg body weight approximately 5 minutes before imaging. Luciferase bioluminescence was imaged under vaporized isofluran anaesthesia using an IVIS® Living Image® System (Caliper Life Sciences, Hopkinton, MA, USA) that allowed monitoring of both the primary tumour growth and cancer cell dissemination in a semi quantitative fashion. After in vivo imaging for several days (up to 37 days), the mice were sacrificed, and protein extracts were obtained from different organs to quantify luciferase activity.

octamer = settings: 25° C., ITC and fluorescence; cited from earlier work

Structure (SMILES)	IC5 (A549 Luc-C8 cells) [µM]	IC25 (A549 Luc-C8 cells) [µM]	IC50 (A549 Luc-C8 cells) [µM]	IC75 (A549 Luc-C8 cells) [µM]	further results
COc1cc([C@@H]2c3cc4c(cc3[C@@H](O[C@@H]3O[C@@H]5CO[C@@H](C)O[C@H]5[C@H](O)[C@H]3O)[C@H]3COC(=O)[C@H]23)OCO4)cc(OC)c1O [etoposide]					Dissociation of single nucleosomes (single nucleosomes): has no effect
O=[N+]([O-])[O-].[Ag+] [AgNO3, Silver nitrate]					Chromatin compaction (STORM images) (A549 proliferating cells): did not affect chromatin compaction
COc1cccc2c1C(=O)c1c(O)c3c(c(O)c1C2=O)C[C@@](O)(C(=O)CO)C[C@@H]3O[C@H]1C[C@H](N)[C@H](O)[C@H](C)O1 [DOX, Doxorubicin]					Dissociation of single nucleosomes (single nucleosomes): dissociated nucleosomes; Increase of amount of CDDP bound to DNA on co-administration with CDDP (A549 cells): did not increase CDDP binding to DNA
N.N.O=C([O-])C1(C(=O)[O-])CCC1.[Pt+2] [CBDCA, Carboplatin]	0.25	0.5	1000	2000	
O=C1[O][Pt]2([NH][C@@H]3CCCC[C@H]3[NH]2)[O]C1=O [OXA, Oxaliplatin]	2.5	12.5	50	200	
[NH2][Pt]([NH2])([Cl])[Cl] [CDDP, Cisplatin]	5	10	50	100	Tumour growth in vivo (bioluminescence) [1]: significantly reduced the growth of tumours
CC[N+](C)(CC)CCC[n+]1c(-c2ccccc2)c2cc(N)ccc2c2ccc(N)cc21.[I-].[I-] [IP, Propidium iodide]					Formation constant of complex with octamer (octamer): 140000 M⁻¹
